Experimental data as given in patent US20240099989A1, “AGENT FOR PREVENTING OR IMPROVING PERIPHERAL NEUROPATHY” (KINKI UNIVERSITY, priority 2021, published 2024).
“Also recorded” adds a separate entry of the source.

Assays:
[1] = test system: Diabetic Peripheral Neuropathy in a Mouse Induced by Streptozotocin; assay: Von Frey test (0.16 g filament), diabetic peripheral neuropathy induced by streptozotocin; type: in vivo, C57BL/6J mice; settings: group receiving streptozotocin only (200 mg/kg, Day 0 only), vs control group
Method: On Day 8 of acclimation, the mice in the group receiving streptozotocin and the group receiving streptozotocin+1 mg/kg xylitol were administered with streptozotocin at a dose of 200 mg/kg. A massive dose of streptozotocin destroys pancreatic cells in the mice. As a result, insulin is no longer secreted, and thus, diabetes can be developed in the mice. This day was designated as the first day of the administration (Day 0). Note that streptozotocin was administered only on the first day of administration. […]
(§1) Six to seven-week-old male C57BL/6J mice were used for the tests as with Example 7. All the mice were acclimated for seven days after arrival. Then, the mice were grouped into the following four groups: a control group, a group receiving streptozotocin, a group receiving 1 mg/kg xylitol, and a group receiving streptozotocin+1 mg/kg xylitol. Each group consisted of nine mice.
(§2) The mice in the group receiving 1 mg/kg xylitol were orally administered with xylitol at a dose of 1 mg/kg daily from Day 0. The mice in the group receiving streptozotocin+1 mg/kg xylitol were orally administered with xylitol at a dose of 1 mg/kg daily from Day 21 of administration.
The mice in the four groups described in (1) of the present example (Example 8) were placed in a cage, and the avoidance response frequency (score) was measured by pressing a filament with a bending force of 0.16 g against the back of the hind paw. […]
(§3) On Day 8 of acclimation, the mice in the group receiving streptozotocin and the group receiving streptozotocin+5 mg/kg D-threitol were administered with streptozotocin at a dose of 200 mg/kg. A massive dose of streptozotocin destroys pancreatic cells in the mice. As a result, insulin is no longer secreted, and thus, diabetes can be developed in the mice. This day was designated as the first day of the administration (Day 0). Note that streptozotocin was administered only on the first day of administration.
(§4) The mice in the group receiving 5 mg/kg D-threitol and the group receiving streptozotocin+5 mg/kg D-threitol were orally administered with D-threitol at a dose of 5 mg/kg daily from Day 0. […]
The mice in the group receiving 5 mg/kg D-threitol were orally administered with D-threitol at a dose of 5 mg/kg daily from Day 0. […]
The mice in the four groups described in (1) of the present example (Example 10) were placed in a cage, and the avoidance response frequency (score) was measured by pressing a filament with a bending force of 0.16 g against the back of the hind paw. […]
The mice in the four groups described in (1) of the present example (Example 11) were placed in a cage, and the avoidance response frequency (score) was measured by pressing a filament with a bending force of 0.16 g against the back of the hind paw. […]

[2] = test system: Diabetic Peripheral Neuropathy in a Mouse Induced by Streptozotocin; assay: Cold plate test (4° C.), diabetic peripheral neuropathy induced by streptozotocin; type: in vivo, C57BL/6J mice; settings: group receiving streptozotocin only (200 mg/kg, Day 0 only), vs control group
Method: as §1, §2
A cold plate test was performed to examine the effect due to xylitol on paresthesia that is caused by a low temperature stimulus. The mice in the four groups described in (1) of the present example (Example 8) were placed on a cold plate set at 4° C., and withdrawal response time (latent time) was measured. It is presumed that a shorter withdrawal response time (latent time) reflects a greater degree of shunning the low temperature stimulus by the cold plate. […]
as §3, §4
The mice in the group receiving 5 mg/kg D-threitol were orally administered with D-threitol at a dose of 5 mg/kg daily from Day 0. The mice in the group receiving streptozotocin+5 mg/kg D-threitol were orally administered with D-threitol at a dose of 5 mg/kg daily from Day 21 of administration.
(§5) A cold plate test was performed to examine the effect of D-threitol on paresthesia that is caused by a low temperature stimulus. The mice in the four groups described in (1) of the present example (Example 10) were placed on a cold plate set at 4° C., and withdrawal response time (latent time) was measured. […]
as §5, with “L-talitol” for “D-threitol”, “11)” for “10)”

[3] = test system: Peripheral Neuropathy in a Mouse Caused by Oxaliplatin; assay: Von Frey test (0.16 g filament), peripheral neuropathy caused by oxaliplatin; type: in vivo, Balb/c mice; settings: group receiving 6 mg/kg oxaliplatin only (i.p. Day 0, 7, 14), vs control group
Excerpt: (§6) Six to seven-week-old female Balb/c mice were used for the tests as with Example 1. All the mice were acclimated for seven days after arrival. Then, the mice were grouped into the following four groups: a control group, a group receiving oxaliplatin, a group receiving D-threitol, and a group receiving oxaliplatin and D-threitol (a group receiving oxaliplatin+D-threitol). Each group consisted of five mice.
On Day 8 of acclimation, the mice in the group receiving oxaliplatin and the group receiving oxaliplatin+D-threitol were intraperitoneally administered with oxaliplatin at a dose of 6 mg/kg. This day was designated as the first day of the administration (Day 0). Thereafter, these mice were intraperitoneally administered with oxaliplatin at a daily dose of 6 mg/kg on Day 7 and Day 14.
The mice in the group receiving D-threitol and the group receiving oxaliplatin+D-threitol were orally administered with D-threitol at a dose of 5 mg/kg daily from Day 0.
The mice in the four groups described in (1) of the present example (Example 3) were placed in a cage, and the avoidance response frequency (score) was measured by pressing a filament with a bending force of 0.16 g against the back of the hind paw.
On Day 8 of acclimation, the mice in the group receiving oxaliplatin and the group receiving oxaliplatin+D-threitol were intraperitoneally administered with oxaliplatin at a dose of 6 mg/kg. This day was designated as the first day of the administration (Day 0). Thereafter, these mice were intraperitoneally administered with oxaliplatin at the same dose on Day 7 and Day 14 for a total of 3 doses.
The mice in the group receiving 100 mg/kg D-threitol were orally administered with D-threitol at a dose of 100 mg/kg daily from Day 0. The mice in the group receiving oxaliplatin+100 mg/kg D-threitol were orally administered with D-threitol at a dose of 100 mg/kg daily from Day 6 of administration.
For the mice in the four groups described in (1) of the present example (Example 4), the avoidance response frequency (score) was measured by pressing a filament with a bending force of 0.16 g against the back of the hind paw.
as §6, with “L-talitol,” for “D-threitol,”, “L-talitol” for “D-threitol”, “oxaliplatin+L-talitol).” for “oxaliplatin+D-threitol).”, “mice. […]” for “mice.”
The mice in the four groups described in (1) of the present example (Example 5) were placed in a cage, and the avoidance response frequency (score) was measured by pressing a filament with a bending force of 0.16 g against the back of the hind paw. […]

[4] = test system: Peripheral Neuropathy in a Mouse Caused by Oxaliplatin; assay: Cold plate test (10° C.), peripheral neuropathy caused by oxaliplatin; type: in vivo, Balb/c mice; settings: group receiving 6 mg/kg oxaliplatin only (i.p. Day 0, 7, 14), vs control group
Method: The preventive action of xylitol on hyperesthesia that occurs when an anticancer drug, oxaliplatin, was administered was examined. […] Xylitol was orally administered to a mouse simultaneously with the administration of oxaliplatin, and the following tests (cold plate test and von Frey test) were performed. Oxaliplatin is an anticancer drug classified as a platinum-containing drug. In all of the examples described below, a dosage (administered amount) (mg/kg) refers to the weight of the administered substance per kg body weight of the mouse.
Six to seven-week-old female Balb/c mice were used for the tests. All the mice were acclimated for seven days after arrival. Then, the mice were grouped into the following four groups: a control group, a group receiving oxaliplatin, and two groups receiving oxaliplatin and two different doses of xylitol (groups receiving oxaliplatin+xylitol). Each group consisted of nine mice.
On Day 8 of acclimation, the mice in the group receiving oxaliplatin and the groups receiving oxaliplatin+xylitol were intraperitoneally administered with oxaliplatin at a dose of 6 mg/kg. This day was designated as Day 0 of administration. Thereafter, these mice were intraperitoneally administered with oxaliplatin at a daily dose of 6 mg/kg on Day 7 and Day 14.
The mice in a first group receiving oxaliplatin and xylitol were orally administered with xylitol at a dose of 1 mg/kg daily from Day 0. The mice in a second group receiving oxaliplatin and xylitol were orally administered with xylitol at a dose of 5 mg/kg daily from Day 0.
(§7) A cold plate test was performed to examine the effect of xylitol on paresthesia that is caused by a low temperature stimulus. The mice in the four groups described in (1) of the present example (Example 1) were placed on a cold plate set at 10° C., and withdrawal response time (latent time) was measured. It is presumed that a shorter latent time reflects a greater degree of shunning the low temperature stimulus by the cold plate.
Six to seven-week-old female Balb/c mice were used for the tests as with Example 1. All the mice were acclimated for seven days after arrival. Then, the mice were grouped into the following five groups: a control group, a group receiving only oxaliplatin, and three groups receiving oxaliplatin and three different doses of xylitol. Each group consisted of seven mice.
On Day 8 of acclimation, the mice in the groups other than the control group were intraperitoneally administered with oxaliplatin at a dose of 6 mg/kg. This day was designated as the first day of the administration (Day 0). Thereafter, these mice were intraperitoneally administered with oxaliplatin at the same dose on Day 7 and Day 14 for a total of 3 doses.
The mice in a first group receiving oxaliplatin+xylitol were orally administered with xylitol at a dose of 5 mg/kg daily from Day 6 of administration. The mice in a second group receiving oxaliplatin+xylitol were orally administered with xylitol at a dose of 25 mg/kg daily from Day 6 of administration. The mice in a third group receiving oxaliplatin+xylitol were orally administered with xylitol at a dose of 100 mg/kg daily from Day 6 of administration. In this context, “Day 6 of administration” means that the number of days after administration is 6. The same applies hereinafter.
as §7, with “A” for “A cold plate”, “performed on the mice in the five groups described in (1) of the present example (Example 2)” for “performed”, “respective” for “the four”, “groups” for “groups described in (1) of the present example (Example 1)”
Six to seven-week-old female Balb/c mice were used for the tests as with Example 1. All the mice were acclimated for seven days after arrival. […]

SMILES	avoidance response score [1]	withdrawal response time (latent time) [2]	avoidance response score [3]	withdrawal response time (latent time) [4]
CN(N=O)C(=O)N[C@H]1C(O)O[C@H](CO)[C@@H](O)[C@@H]1O (mixture of isomers) [streptozotocin, reference compound]	increased from Day 7	reduced from Day 7		
O=C1[O][Pt]2([NH][C@@H]3CCCC[C@H]3[NH]2)[O]C1=O [oxaliplatin, reference compound]			remarkable increase in the avoidance response score	reduced from Day 3 to Day 6 of the test; also recorded: uniform reduction in the withdrawal response time
